Test system: HEK-293T
Experiment: Incucyte cell viability with HEK293T; also: filed as whole numbers so only -1 and 0 and 1 occur
Format: toxicity, cell-based
Conditions: human, 10 µM, compound concentration 10 uM
[1] = 6 h, replicate number 1, timepoint 6 hours
[2] = 12 h, replicate number 1, timepoint 12 hours
[3] = 18 h, replicate number 1, timepoint 18 hours
[4] = 24 h, replicate number 1, timepoint 24 hours
[5] = 0 h, replicate number 1, timepoint 0 hours
[6] = 0 h, replicate number 2, timepoint 0 hours
[7] = 12 h, replicate number 2, timepoint 12 hours
[8] = 6 h, replicate number 2, timepoint 6 hours

Compound | Growth Rate [1] | Growth Rate [2] | Growth Rate [3] | Growth Rate [4] | Growth Rate [5] | Growth Rate [6] | Growth Rate [7] | Growth Rate [8] | Growth Rate (24 h, replicate number 2, timepoint 24 hours)
CCc1ccc(OCc2ccccc2C(=O)Nc2ccc3nc(C)cc(N)c3c2)cc1.Cl | 0 | 0 | 0 | 0 |  |  |  |  | 
O=C(c1cc2c(cc1F)OC(c1ccc(F)cc1)(c1ccc(Cl)cc1Cl)O2)N1CCOCC1 (stereo not given) | 0 | 0 | 0 | 0 | 0 |  |  |  | 
CN(c1ccccc1CNc1nc(Nc2ccc3c(c2)CC(=O)N3)ncc1C(F)(F)F)S(C)(=O)=O | 0 | 0 | 0 | 0 |  |  |  |  | 
CCc1nn(CCCN2CCN(c3cccc(Cl)c3)CC2)c(=O)n1CCOc1ccccc1.Cl [NEFAZODONE HYDROCHLORIDE] | 0 | 0 | 0 | 0 |  | 0 |  |  | 
O=c1cc(N2CCOCC2)oc2c(-c3cccc4c3sc3ccccc34)cccc12 | 0 | 0 | 0 | 0 |  |  |  |  | 
C[C@]12CC[C@@H]3c4ccc(O)cc4CC[C@H]3[C@@H]1CC[C@@H]2O [ESTRADIOL] | 0 | 0 | 0 | 0 | 1 | 0 |  |  | 
CNC(=O)Nc1ccc2c(c1)[C@@]1(CC2)OC(=O)N(CC(=O)N(Cc2ccc(F)cc2)[C@@H](C)C(F)(F)F)C1=O [A-486] | 0 | 0 | 0 | 0 | 1 |  |  |  | 
CNC(=O)Nc1ccc(-c2nc(N3CC4CCC(C3)O4)c3cnn(C4CCC5(CC4)OCCO5)c3n2)cc1 | 0 | 0 | 0 | 0 |  |  |  |  | 
CC(C)c1noc(N2CCC(COc3ccc(-c4ccc(S(C)(=O)=O)cc4)nc3)CC2)n1 [GSK-1292263] | 0 | 0 | 0 | 0 |  | 0 |  |  | 
C=CC(=O)Nc1ccc2[nH]c(=O)n(C3CCN(Cc4ccc(-c5nc6cc[nH]c(=O)c6cc5-c5ccccc5)cc4)CC3)c2c1 [Borussertib] | 0 | 0 | 0 | 0 | 0 | 1 |  |  | 
CCCSc1nc(N[C@@H]2C[C@H]2c2ccc(F)c(F)c2)c2nnn([C@@H]3C[C@H](OCCO)[C@@H](O)[C@H]3O)c2n1 [TICAGRELOR] | 0 | 0 | 0 | 0 |  | 0 |  |  | 
CC(C)(C)NC[C@H](O)COc1nsnc1N1CCOCC1 [TIMOLOL] | 0 | 0 | 0 | 0 | 0 |  | 1 |  | 
O=c1[nH]c2ccccc2n1C1CCN(Cc2ccc(-c3[nH]c4cc5ncnc5cc4nc3-c3ccccc3)cc2)CC1 | 0 | 0 | 0 | 0 |  | 1 |  |  | 
C#Cc1cccc(Nc2ncnc3cc(OCCOC)c(OCCOC)cc23)c1 [ERLOTINIB] | 0 | 0 | 0 | 0 | 0 |  |  |  | 
Cc1nc(N2CC[C@H](O)C2)ncc1-c1cc(C(F)(F)F)cc2[nH]ncc12 | 0 | 0 | 0 | 0 | 1 |  |  |  | 
C=CC(=O)Nc1cccc(Sc2nc(Nc3ccc(N4CCN(C)CC4)cc3)ncc2Cl)c1 | 0 | 0 | 0 | 0 |  |  |  |  | 
CC(C)Oc1ccccc1C(=O)Nc1ccccc1C(=O)Nc1cccc(S(=O)(=O)C(F)(F)F)c1 | 0 | 0 | 0 | 0 | 0 |  |  |  | 
Cc1cc(C)c(-n2ccn3nc(-c4cccnc4)cc23)cc1NC(=O)c1cc(C#N)cc(S(F)(F)(F)(F)F)c1 [BAY-826] | 0 | 0 | 0 | 0 | 0 |  |  |  | 

Compound | Growth Rate [1] | Growth Rate [2] | Growth Rate [3] | Growth Rate [4] | Growth Rate [5] | Growth Rate [6] | Growth Rate [7] | Growth Rate [8] | Growth Rate (24 h, replicate number 2, timepoint 24 hours)
Cl.O=C(O)c1cc(-c2ccc(C3CCNCC3)cc2)c2ccc(-c3ccc(C(F)(F)F)cc3)cc2c1 | 0 | 0 | 0 | 0 | 0 |  |  | 1 | 
CNCc1ccccc1-c1csc([C@@H](C)Nc2nc(C)nc3cc(OC)c(OC)cc23)c1 [BAY-293] | 0 | 0 | 0 | 0 |  |  |  |  | 
CNC(=O)c1ccc(Nc2ncc(C(F)(F)F)c(NCc3nccnc3N(C)S(C)(=O)=O)n2)cc1 [DEFACTINIB] | 0 | 0 | 0 | 0 | 1 |  |  |  | 
COC(=O)C1=C(C)NC(C)=C(C(=O)OCCCN2CCC(c3ccccc3)(c3ccccc3)CC2)[C@H]1c1cccc([N+](=O)[O-])c1 [NIGULDIPINE] | 0 | 0 | 0 | 0 |  | 0 |  |  | 
CN1CCN(Cc2ccc(Nc3ncc(Cl)c(Nc4ccccc4S(=O)(=O)N(C)C)n3)cc2)CC1 [DUBERMATINIB] |  | 1 | 0 | 0 | 0 | 1 | 0 | 0 | 
CC(C)NC(=O)N1CC[C@H](NC2=Nc3cc(F)ccc3N(CC(F)F)c3ccc(Cl)cc32)C1 |  | 1 | 1 | 1 | 0 |  |  | 0 | 0
C=CC(=O)Nc1cccc(Oc2nc(Nc3ccc(N4CCN(C)CC4)cc3OC)ncc2Cl)c1 | 0 | 0 | 0 | 0 |  |  |  |  | 
CC(C)CC(=O)Nc1[nH]nc2c1CN(C(=O)C1CCN(C)CC1)C2(C)C [PHA-793887] | 0 | 0 | 0 | 0 | 1 |  |  |  | 
Cc1cccc(CN2CCN(C(c3ccccc3)c3ccc(Cl)cc3)CC2)c1.Cl.Cl (stereo not given) | 0 | 0 | 0 | 0 | 1 | 0 |  |  | 
CN1CCN(Cc2cc(NC(=O)c3ccc4c(c3)CN(c3ccccc3)CC4)cc(C(F)(F)F)c2)CC1 | 0 | 0 | 0 | 0 |  |  |  |  | 
COc1cc(Nc2nccc(-c3cnn4nc(OC)ccc34)n2)cc(C(F)(F)F)c1 | 0 | 0 | 0 | 0 |  |  |  |  | 
COc1ccccc1CN[C@H]1C2CCN(CC2)[C@H]1C(c1ccccc1)c1ccccc1 [CP-96345] | 0 | 0 | 0 | 0 | 1 | 0 |  |  | 
CC1=C(C(=O)Nc2cc3cn[nH]c3cc2F)C(c2ccc(C(F)(F)F)cc2)CC(=O)N1 (stereo not given) |  |  |  | 1 | 0 |  |  |  | 
Cc1c[nH]c2nccc(Oc3c(F)cc(Nc4cc(Cl)nc(N)n4)cc3F)c12 [BAY-549] | 0 | 0 | 0 | 0 | 0 |  |  |  | 
COc1ccc(-c2ccc3ncc4c(c3c2)n(-c2ccc(N3CCNCC3)c(C(F)(F)F)c2)c(=O)n4C)cn1.O=C(O)/C=C\C(=O)O [BGT-226] | 0 | 0 | 0 | 0 |  |  |  |  | 
Cc1ccc2c(c1)c1c(n2CCc2ccc(C)nc2)CCN(C)C1 [LATREPIRDINE] | 0 | 0 | 0 | 0 |  | 0 |  |  | 
CC(C)OC(=O)N1CCC(Oc2ncnc3c2cnn3-c2ccc(S(C)(=O)=O)cc2F)CC1 | 0 | 0 | 0 | 0 |  | 1 |  |  | 
COc1cc2ncn(-c3cc(OCc4ccccc4C(F)(F)F)c(C(N)=O)s3)c2cc1OC [GW843682X] |  | 0 | 0 | 0 | 0 |  |  |  | 

— ChEMBL document CHEMBL4689842, “EUbOPEN Chemogenomics Library wave 1” (2021)
